In patent US20060121449A1, “Method for selection of compounds which inhibit clonal cell growth and use thereof” (priority 2002, published 2006):
Entries after “also recorded” stand apart in the source; their conditions may differ.

Experiments:
[1] = test system: polyoma virus transformed BHK21/c13 cells, clone S100T1; experiment: Clonal test: clonal growth of S100T1 cells in soft agar (Exp 2, 4, 6, 15, 16); format: cell-based, hamster
Ehrlich ascites tumour = details: Exp 18
Method: Tumour cells harvested from ascitic mouse were mainly solitary.
The experiment describes transplantation of the malignant mouse Ehrlich ascites tumour to two adult male mice (NMRI/Bom). Each of them received 100000 cells intraperitonally. One mouse was treated two times a week with 4-OH-OPB intraperitonally.
Cells were injected 90 minutes after the addition of 4-OH-OPB to the suspension. The control received the same cell suspension without 4-OH-OPB.
At the same time, dilutions of 4-OH-OPB were injected intraperitonally to the transplanted mice in order to find the smallest active dose.
The cells from ascites in the untreated control mouse was frozen on serum with 10% DMSO. The cells were thawed in water of 37° C., diluted in serum, and pelleted by low speed centrifugation after the addition of 2 ml FBS, to remove DMSO.
Each animal received such cells suspended in portions of 1 ml in RPMI (pH˜6.9).
The frozen and thawed Ehrlich ascites cells are diluted in a volume of 1 ml RPMI (pH˜6.9) for each animal. No calf serum was added to the medium to avoid immunisation of the mice.
Cell number: 90000 tumour cells in 0.7 ml RPMI were injected intraperitonally to each animal.
The total cell number in the ampoule was 7.5 million cells. The cells were thawed, and 2 ml FBS was added before low speed centrifugation. […] Than separate vessels were prepared for each animal. The cell tube for animal number 3 received Colchicine as indicated in the table on day 0 one hour before the cells were injected.
After mixing the same volume was transferred from this tube to the last tube.
The content of the last two tubes was injected intraperitonally to each of the mice number 1 and 2 respectively.

[2] = test system: polyoma virus transformed BHK21/c13 cells, line S100T1; experiment: Collocation inhibition test: clonal growth in sparsely and densely seeded areas of a cell density gradient of S100T1 cells in soft agar (Exp 13, 17, 19-26); details: for Significance: Exp 17 day 14;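 on Clonal growth, H high density area of cell gradient, High: grades rise with clonal growth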;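 on Clonal growth, H high density area of cell gradient, Low: grades rise with clonal growth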;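 on Clonal growth, H high density area of cell gradient, Medium: grades rise with clonal growth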;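 on Clonal growth, L low density area of cell gradient, High: grades rise with clonal growth and minus or plus-minus means none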;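 on Clonal growth, L low density area of cell gradient, Low: grades rise with clonal growth and minus or plus-minus means none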;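 on Clonal growth, L low density area of cell gradient, Medium: grades rise with clonal growth and minus or plus-minus means none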;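 on all read-outs here: soft agar cultures in 24-well plates with a cell density gradient in the top layer, compounds applied from DMSO stocks, clonal growth scored in sparse versus dense areas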
[3] = Exp 13, 4-OH-OPB 1-3 μM, Colchicine 0.01-0.1 μM
[4] = Exp 13, High inhibitor conc. (Colchicine 100 nM), H: high cell density area
[5] = Exp 13, High inhibitor conc. (Colchicine 100 nM), L: low cell density area
[6] = Exp 13, Low inhibitor conc. (4-OH—OPB 1 μM, Colchicine 10 nM), H: high cell density area
[7] = Exp 13, Low inhibitor conc. (4-OH—OPB 1 μM, Colchicine 10 nM), L: low cell density area
[8] = Exp 13, Medium inhibitor conc. (4-OH—OPB 3 μM, Colchicine 33 nM), H: high cell density area
[9] = Exp 13, Medium inhibitor conc. (4-OH—OPB 3 μM, Colchicine 33 nM), L: low cell density area
[10] = preliminary results, Exp 13-18, 21-26, high concentration
[11] = preliminary results, Exp 13-18, 21-26, low concentration
[12] = preliminary results, Exp 13-18, 21-26, medium concentration

Question: Which results are given for COc1cc2c(c(OC)c1OC)-c1ccc(OC)c(=O)cc1[C@@H](NC(C)=O)CC2 [Colchicine, reference compound]?
Answer: Effect on clonal growth at 0.01-0.1 μM ([1]; Exp 15, 32000 S100T1 cells/well): did not inhibit clonal growth; Colony inhibiting activity for dosage within a range that might be therapeutic ([1]; Exp 16, about 40000 S100T1 cells/well): the same activity possibly existed; Significance ([1]; Exp 16 day 14, Colchicine No 1 (lot 60K1932, solved in DMSO 8 days beforehand, stored frozen), 0.1 μM): doubtful; Growth ([1]; Exp 16 day 14, Colchicine No 1 (lot 60K1932, solved in DMSO 8 days beforehand, stored frozen), 0.1 μM in wells): (+; Significance ([1]; Exp 16 day 14, Colchicine No 1 (lot 60K1932, solved in DMSO 8 days beforehand, stored frozen), 1 μM): doubtful; Growth ([1]; Exp 16 day 14, Colchicine No 1 (lot 60K1932, solved in DMSO 8 days beforehand, stored frozen), 1 μM in wells): (+; Growth ([1]; Exp 16 day 14, Colchicine No 2 (lot 60K1932, solved in DMSO the same day), 0.1 μM in wells): (+; Significance ([1]; Exp 16 day 14, Colchicine No 2 (lot 60K1932, solved in DMSO the same day), 0.1 μM, ” = as line above): ” and doubtful; Significance ([1]; Exp 16 day 14, Colchicine No 2 (lot 60K1932, solved in DMSO the same day), 1 μM): possible; Growth ([1]; Exp 16 day 14, Colchicine No 2 (lot 60K1932, solved in DMSO the same day), 1 μM in wells): (+); Significance ([1]; Exp 16 day 14, Colchicine No 3 (lot 28H1229, solved in DMSO the same day), 0.1 μM): possible; Growth ([1]; Exp 16 day 14, Colchicine No 3 (lot 28H1229, solved in DMSO the same day), 0.1 μM in wells): (+); Growth ([1]; Exp 16 day 14, Colchicine No 3 (lot 28H1229, solved in DMSO the same day), 0.22 μM in wells): (+); Significance ([1]; Exp 16 day 14, Colchicine No 3 (lot 28H1229, solved in DMSO the same day), 0.22 μM, ” = as line above): ” and possible; Growth ([1]; Exp 16 day 14, Colchicine No 4 (lot 28H1229, solved in DMSO the same day), 0.46 μM in wells): (+); Significance ([1]; Exp 16 day 14, Colchicine No 4 (lot 28H1229, solved in DMSO the same day), 0.46 μM, ” = as line above): ” and possible; Significance ([1]; Exp 16 day 14, Colchicine No 4 (lot 28H1229, solved in DMSO the same day), 1 μM): probable; Growth ([1]; Exp 16 day 14, Colchicine No 4 (lot 28H1229, solved in DMSO the same day), 1 μM in wells): (+)); Significance ([1]; Exp 16 day 21, Colchicine No 1 (lot 60K1932, solved in DMSO 8 days beforehand, stored frozen), 0.1 μM): no; Growth ([1]; Exp 16 day 21, Colchicine No 1 (lot 60K1932, solved in DMSO 8 days beforehand, stored frozen), 0.1 μM in wells): +; Significance ([1]; Exp 16 day 21, Colchicine No 1 (lot 60K1932, solved in DMSO 8 days beforehand, stored frozen), 1 μM): doubtful; Growth ([1]; Exp 16 day 21, Colchicine No 1 (lot 60K1932, solved in DMSO 8 days beforehand, stored frozen), 1 μM in wells): (+; Significance ([1]; Exp 16 day 21, Colchicine No 2 (lot 60K1932, solved in DMSO the same day), 0.1 μM): doubtful; Growth ([1]; Exp 16 day 21, Colchicine No 2 (lot 60K1932, solved in DMSO the same day), 0.1 μM in wells): (+; Significance ([1]; Exp 16 day 21, Colchicine No 2 (lot 60K1932, solved in DMSO the same day), 1 μM): possible; Growth ([1]; Exp 16 day 21, Colchicine No 2 (lot 60K1932, solved in DMSO the same day), 1 μM in wells): (+); Growth ([1]; Exp 16 day 21, Colchicine No 3 (lot 28H1229, solved in DMSO the same day), 0.1 μM in wells): (+; Significance ([1]; Exp 16 day 21, Colchicine No 3 (lot 28H1229, solved in DMSO the same day), 0.1 μM, ” = as line above): ” and doubtful; Significance ([1]; Exp 16 day 21, Colchicine No 3 (lot 28H1229, solved in DMSO the same day), 0.22 μM): doubtful; Growth ([1]; Exp 16 day 21, Colchicine No 3 (lot 28H1229, solved in DMSO the same day), 0.22 μM in wells): (+; Significance ([1]; Exp 16 day 21, Colchicine No 4 (lot 28H1229, solved in DMSO the same day), 0.46 μM): possible; Growth ([1]; Exp 16 day 21, Colchicine No 4 (lot 28H1229, solved in DMSO the same day), 0.46 μM in wells): (+); Growth ([1]; Exp 16 day 21, Colchicine No 4 (lot 28H1229, solved in DMSO the same day), 1 μM in wells): (+; Significance ([1]; Exp 16 day 21, Colchicine No 4 (lot 28H1229, solved in DMSO the same day), 1 μM, ” = as line above): ” and doubtful; tumour in abdominal wall, findings on section (Ehrlich ascites tumour; at killing, control 2 × 3 mm tumour): Lens sized; ascites with Ehrlich cells, findings on section (Ehrlich ascites tumour; at killing, control 4 ml): 1.5 mL; day 14 status (Ehrlich ascites tumour; day 14 after ip transplantation, mouse 1 killed, mice 2 and 3 marked '?'): Ascites; day 16 status (Ehrlich ascites tumour; day 16, killed because of signs of ascites): Ascites; Rescue of mice from transplanted Ehrlich tumour (Ehrlich ascites tumour; high dose mixed with the transplanted cells before injection): did not provide complete protection against the development of transplantable Ehrlich tumour; also recorded: not rescue the animal either. The conclusion is; weight gain in % (Ehrlich ascites tumour; one mouse each, ip: mouse 1 4-OH—OPB from day 1, mouse 2 Etoposide + 4-OH—OPB from day 1, mouse 3 Colchicine from day 0, control mouse 42.4): 23.8%; Growth in locations with high cell density [2, 3]: did not inhibit clonal growth; Growth in locations with low cell density (sparsely seeded cells) [2, 3]: full inhibition on clonal growth of sparsely seeded cells; also recorded: inhibited growth in locations with low cell density even when using low doses; Growth, summary of results after 3 days incubation [2, 4]: +++; Growth, summary of results after 4 days incubation [2, 4]: +++; Growth, summary of results after 3 days incubation [2, 5]: −; Growth, summary of results after 4 days incubation [2, 5]: −; Growth, summary of results after 3 days incubation [2, 6]: +++; Growth, summary of results after 4 days incubation [2, 6]: +++; Growth, summary of results after 3 days incubation [2, 7]: −; Growth, summary of results after 4 days incubation [2, 7]: +−; Growth, summary of results after 3 days incubation [2, 8]: +++; Growth, summary of results after 4 days incubation [2, 8]: +++; Growth, summary of results after 3 days incubation [2, 9]: −; Growth, summary of results after 4 days incubation [2, 9]: −; Effect on growth in high- and low-density areas ([2]; Exp 17, 144000 S100T1 cells/well): did not inhibit the high-density areas significantly; also recorded: no complete clonal inhibition could be observed; Clonal growth, results read on the day 14 ([2]; Exp 17, a: close to densely seeded cell areas, High: Colchicine 1, Podophyllotoxin 3, Etoposide 200, 4-OH—OPB 6.7 μM in wells, DMSO 29.2 μl): (+); Clonal growth, results read on the day 14 ([2]; Exp 17, a: close to densely seeded cell areas, Low: Colchicine 0.1, Podophyllotoxin 0.3, Etoposide 20, 4-OH—OPB 0.67 μM in wells, DMSO 1.16 μl): ++; Clonal growth, results read on the day 14 ([2]; Exp 17, a: close to densely seeded cell areas, Medium: Colchicine 0.3, Podophyllotoxin 0.9, Etoposide 60, 4-OH—OPB 2 μM in wells, DMSO 6.8 μl): ++; Clonal growth, results read on the day 14 ([2]; Exp 17, b: sparsely seeded areas in the same agar culture, High: Colchicine 1, Podophyllotoxin 3, Etoposide 200, 4-OH—OPB 6.7 μM in wells, DMSO 29.2 μl): (+); Clonal growth, results read on the day 14 ([2]; Exp 17, b: sparsely seeded areas in the same agar culture, Low: Colchicine 0.1, Podophyllotoxin 0.3, Etoposide 20, 4-OH—OPB 0.67 μM in wells, DMSO 1.16 μl): ++; Clonal growth, results read on the day 14 ([2]; Exp 17, b: sparsely seeded areas in the same agar culture, Medium: Colchicine 0.3, Podophyllotoxin 0.9, Etoposide 60, 4-OH—OPB 2 μM in wells, DMSO 6.8 μl): ++; Clones in sparsely seeded locations of the agar ([2]; Exp 17, compared with 4-OH-OPB): allow the growth of a few small clones in sparsely seeded locations of the agar; also recorded: to allow the growth of a few small clones in sparsely; Significance ([2]; a: close to densely seeded cell areas, High: Colchicine 1, Podophyllotoxin 3, Etoposide 200, 4-OH—OPB 6.7 μM in wells, DMSO 29.2 μl): Possible; Significance ([2]; a: close to densely seeded cell areas, Low: Colchicine 0.1, Podophyllotoxin 0.3, Etoposide 20, 4-OH—OPB 0.67 μM in wells, DMSO 1.16 μl): No; Significance ([2]; a: close to densely seeded cell areas, Medium: Colchicine 0.3, Podophyllotoxin 0.9, Etoposide 60, 4-OH—OPB 2 μM in wells, DMSO 6.8 μl): No; Significance ([2]; b: sparsely seeded areas, High: Colchicine 1, Podophyllotoxin 3, Etoposide 200, 4-OH—OPB 6.7 μM in wells, DMSO 29.2 μl): Possible; Significance ([2]; b: sparsely seeded areas, Low: Colchicine 0.1, Podophyllotoxin 0.3, Etoposide 20, 4-OH—OPB 0.67 μM in wells, DMSO 1.16 μl): No; Significance ([2]; b: sparsely seeded areas, Medium: Colchicine 0.3, Podophyllotoxin 0.9, Etoposide 60, 4-OH—OPB 2 μM in wells, DMSO 6.8 μl): No; Clonal growth, H high density area of cell gradient, High [2, 10]: +++; Clonal growth, L low density area of cell gradient, High [2, 10]: −; Clonal growth, H high density area of cell gradient, Low [2, 11]: +++; Clonal growth, L low density area of cell gradient, Low [2, 11]: −; Clonal growth, H high density area of cell gradient, Medium [2, 12]: +++; Clonal growth, L low density area of cell gradient, Medium [2, 12]: −; Effect on cell cloning in soft agar ([2]; preliminary results, in words): Growth in high density areas; also recorded: No growth in low density areas
